Source: US20250281465A1, “MOLECULES THAT ENHANCE EXTRACELLULAR VESICLE RELEASE” (priority 2022, published 2025)

Tests used:
mBMDCs = assay: Costimulatory molecule expression on mBMDCs (flow cytometry); type: cell-based, mouse; conditions: 634 10 μM, ION 1 μM, MPLA 1 μg/mL overnight, vs Veh
Method: FIGS. 26A-26D. Flow cytometric analysis for costimulatory molecules on mBMDCs. For costimulatory molecules on mBMDCs, mBMDCs (10^6 cells/mL) were incubated with 634 (10 μM), ION (1 μM), and MPLA (1 μg/mL) for 20-24 hours. 0.5% DMSO was used as a vehicle. After removing the supernatant, cells were washed with the stain buffer and incubated with anti-mouse CD16/32 antibody for blocking FcR. Cells were stained with an antibody cocktail with anti-CD86 (A), anti-CD80 (B), anti-MHC class II (C), and anti-CD40 (D) antibodies for 30 minutes at 4° C. Cells were then washed and stained with DAPI (4′,6-diamino-2phenylindole) for 10 minutes at room temperature to exclude dead cells (DAPI^high) from the analysis. Data were acquired using MACSQuant Analyzer 10 (Miltenyi Biotec, Germany) and analyzed with FlowJo (version 10.8.1).
mBMDCs (10^5 cells/200 μL/well) were treated with a test compound (10 μM) or Veh (0.5% DMSO) overnight and then the costimulatory molecule expression on mBMDCs was evaluated using flow cytometry. The cells were stained with antibodies for CD11c, CD80, CD83, CD86, CD40, and MHC class II. Dead cells (DAPI high) were excluded from the analysis. Percent positive population of CD80, CD83, CD86, CD40, or MHC class II in the gated CD11c population were analyzed.
Costimulatory Molecule Expression Analysis. mBMDCs (10^6 cells/mL) were incubated with 10 μM compound, 1 μM lonomycin and 1 μg/mL MPLA for 20 to 24 hours. 0.5% DMSO was used as vehicle. Cells were incubated with anti-mouse CD16/32 antibody for blocking FcR and stained with anti-CD11c, anti-CD40, […], anti-CD83, […], or anti-MHC class II antibodies for 30 minutes at 4° C. Cells were stained with 4′,6-diamino-2-phenylindole (DAPI) for 10 minutes at RT. Data were acquired using MACSQuant Analyzer 10 (Miltenyi Biotec, Germany) and analyzed with FlowJo (version 10.8.1, Becton Dickinson, Ashland, OR)).

C57BL/6 mice = assay: In vivo adjuvanticity with ovalbumin as model antigen; design: species or system mouse; conditions: OVA 20 μg + compound 200 nmol i.m. days 0 and 21, day 28
Method: FIGS. 1A-1D. Intracellular Ca^2+ influx screening of 84 HTS hit candidate compounds. (A) THP-1 cells were loaded with the ratiometric Ca^2+ indicator, Fura-2, and treated with lonomycin (ION, 1 μM), Thapsigargin (1 μM), or 84 hit candidate compounds (10 μM) for 25 minutes. Data are presented as the area under the curve (AUG) of OD340/380 ratios corresponding to the intracellular Ca^2+ kinetics. The baseline-subtracted AUG was calculated using GraphPad Prism (GraphPad Software, San Diego, CA). (B) Ca^2+ mobilization by compound #634. mBMDCs were loaded with the ratiometric Ca^2+ indicator, Fura-8, and treated with ION (1 μM), or #634 (2 and 10 μM) for 25 minutes. The dashed line indicates the timing of compounds added. […] OVA-specific IgGI and IgG2c levels in sera were determined by ELISA. **p<0.01, ***p<0.001, ns (not significant) by KruskalWallis tests with Dunn's post hoc test vs. Veh. […]
Eighty-four hit candidate compounds were also screened for in vivo adjuvant activities using C57BL/6 mice and model antigen ovalbumin (OVA). […] Sera were collected on day 28, and OVA-specific immunoglobulins IgG1 and IgG2c were determined by ELISA (FIG. 1D).
The selected 80 compounds were first evaluated for purity and identity by HPLC-MS and compounds which were less than 90% pure were purified by Prep-HPLC. These were then evaluated for vaccine adjuvant activity in mice using a model antigen, ovalbumin (OVA). […]

| SMILES | CD80 expression on mBMDCs (mBMDCs) | CD86 expression on mBMDCs (mBMDCs) | Anti-OVA IgG1 level in sera (C57BL/6 mice) | Anti-OVA IgG2c level in sera (C57BL/6 mice) |
| --- | --- | --- | --- | --- |
| CCOC(=O)c1c(NS(=O)(=O)c2cccc3nsnc23)sc(C)c1C [compound 634, Ethyl 2-(benzo[c][1,2,5]thiadiazole-4-sulfonamido)-4,5-dimethylthiophene-3-carboxylate] | increased CD86 and CD80 expression on mBMDCs | increased CD86 and CD80 expression on mBMDCs |  |  |
| CCOC(=O)c1c(NS(=O)(=O)c2cccc3c2N=S=N3)sc(C)c1C [#634, ethyl 2-(benzo[c][1,2,5]thiadiazole-4-sulfonamido)-4,5-dimethylthiophene-3-carboxylate] |  |  | appeared to be higher than the levels from animals immunized without adjuvant, although there were no significant differences | appeared to be higher than the levels from animals immunized without adjuvant, although there were no significant differences |
